Measurements taken from patent US20160279187A1, “CALPAIN INHIBITORS FOR IBD AND COLORECTAL CANCER TREATMENT” (UNIVERSITY OF HAWAII, priority 2013, published 2016).
Where a SMILES comes first, the peptide text is derived from it. The star is where a group is joined. Cbz = O=C(OCc1ccccc1)*; CH2F = FC*

Columns and labels:
[1] = tested on: Akt phosphorylation / FAK cleavage in macrophages; test: other m-calpain regulated pathways in macrophages (Akt, FAK); assay type: cell-based
[2] = molecular target: T1, M-Calpain activity in CT-26 WT cells (Mus musculus, UniProt O08529); test: Calpain Activity Assay Kit (BioVision), CT-26.WT; assay type: cell-based; conditions: vs DMSO, 1 hour
T1 construct: endogenous in cells; host or cells: CT-26.WT mouse colon cancer cells
T1 sequence (O08529 20-700 limits assumed): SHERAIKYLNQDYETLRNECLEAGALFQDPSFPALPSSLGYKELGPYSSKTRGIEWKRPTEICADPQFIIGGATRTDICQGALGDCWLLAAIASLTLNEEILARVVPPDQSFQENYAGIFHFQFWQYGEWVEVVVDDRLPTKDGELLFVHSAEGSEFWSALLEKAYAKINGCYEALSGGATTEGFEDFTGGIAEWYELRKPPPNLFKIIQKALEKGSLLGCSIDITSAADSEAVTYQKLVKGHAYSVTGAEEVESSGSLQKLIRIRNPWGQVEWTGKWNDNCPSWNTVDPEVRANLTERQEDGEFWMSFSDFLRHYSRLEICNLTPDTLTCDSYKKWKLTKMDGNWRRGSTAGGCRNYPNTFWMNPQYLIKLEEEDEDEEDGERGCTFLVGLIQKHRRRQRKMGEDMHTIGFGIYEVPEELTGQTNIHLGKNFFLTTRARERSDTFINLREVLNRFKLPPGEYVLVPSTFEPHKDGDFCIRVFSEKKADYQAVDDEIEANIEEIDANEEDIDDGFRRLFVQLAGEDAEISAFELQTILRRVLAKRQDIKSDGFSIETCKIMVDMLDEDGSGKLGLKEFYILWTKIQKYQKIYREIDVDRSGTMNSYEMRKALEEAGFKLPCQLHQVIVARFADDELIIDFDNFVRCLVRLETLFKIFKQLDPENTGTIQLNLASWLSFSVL
T1 sequence (O88456 1-268 partner): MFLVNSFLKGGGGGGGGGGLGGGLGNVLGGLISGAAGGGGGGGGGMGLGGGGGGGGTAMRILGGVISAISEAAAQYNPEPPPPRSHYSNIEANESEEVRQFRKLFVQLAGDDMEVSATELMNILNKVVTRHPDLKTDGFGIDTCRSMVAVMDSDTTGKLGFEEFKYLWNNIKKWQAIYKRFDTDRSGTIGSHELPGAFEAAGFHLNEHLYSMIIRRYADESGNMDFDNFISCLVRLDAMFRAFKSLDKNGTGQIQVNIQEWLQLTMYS
Procedure: Bone marrow derived macrophages (BMDM) were prepared as previously described by methods known to those skilled in the art. On day 5 of culture, 2×10^6 BMDM were seeded in 6-well plates and the following day were primed for 18 h with TNFα (20 ng/mL), followed by 1 h stimulation with E. faecalis (1 μg/mL; ATCC). Stimulation with E. faecalis was conducted in the presence of the zLLY-CH2F calpain-2 inhibitor (20 μg/mL) or DMSO as a control. Media was removed from treated BMDM, centrifuged at 300×g for 5 min and supernatent analyzed using the Cytometric Bead Array Mouse Inflammation Kit (BD Biosciences, San Jose, Calif.). Cytokine data were analyzed using Flowjo software (Ashland, Oreg.) and GraphPad Prism version 4.0 (GraphPad, La Jolla, Calif.). Cell pellets were lysed and analyzed for IκB and NFκB by Western blot as previously described (Miyazaki, T. et al. Journal of Atherosclerosis and Thrombosis 20, 228-237, 2013). […] Each day 4 wells were quantified using Celltiter MTS reagent (Promega) and the resulting signal was used to generate a proliferation curve. Calpain activity was measured using a Calpain activity assay kit (BioVision, Inc., Milpitas, Calif.) as previously described. Colons were harvested on day 4 and calpain activity measured. […]

M-Calpain activity [2]: reduced
Structure (SMILES): CC(C)C[C@H](NC(=O)OCc1ccccc1)C(=O)N[C@@H](CC(C)C)C(=O)N[C@@H](Cc1ccc(O)cc1)C(=O)CF [zLLY-CH2F, Z-LLY-CH2F] (Cbz-Leu-Leu-Tyr-CH2F)
FAK cleavage [1]: major effect
phosphorylation of Akt [1]: inhibited
